The values below come from BindingDB's records for doi:10.7270/Q2Z899VD (Burnham Center For Chemical Genomics, 2010).

The IC50 is the concentration needed to halve the response being measured. Lower therefore signals greater potency.

The target in the test is T1, Nucleotide-binding oligomerization domain-containing protein 1 (Homo sapiens, UniProt Q9Y239).
T1 sequence (Q9Y239 whole entry): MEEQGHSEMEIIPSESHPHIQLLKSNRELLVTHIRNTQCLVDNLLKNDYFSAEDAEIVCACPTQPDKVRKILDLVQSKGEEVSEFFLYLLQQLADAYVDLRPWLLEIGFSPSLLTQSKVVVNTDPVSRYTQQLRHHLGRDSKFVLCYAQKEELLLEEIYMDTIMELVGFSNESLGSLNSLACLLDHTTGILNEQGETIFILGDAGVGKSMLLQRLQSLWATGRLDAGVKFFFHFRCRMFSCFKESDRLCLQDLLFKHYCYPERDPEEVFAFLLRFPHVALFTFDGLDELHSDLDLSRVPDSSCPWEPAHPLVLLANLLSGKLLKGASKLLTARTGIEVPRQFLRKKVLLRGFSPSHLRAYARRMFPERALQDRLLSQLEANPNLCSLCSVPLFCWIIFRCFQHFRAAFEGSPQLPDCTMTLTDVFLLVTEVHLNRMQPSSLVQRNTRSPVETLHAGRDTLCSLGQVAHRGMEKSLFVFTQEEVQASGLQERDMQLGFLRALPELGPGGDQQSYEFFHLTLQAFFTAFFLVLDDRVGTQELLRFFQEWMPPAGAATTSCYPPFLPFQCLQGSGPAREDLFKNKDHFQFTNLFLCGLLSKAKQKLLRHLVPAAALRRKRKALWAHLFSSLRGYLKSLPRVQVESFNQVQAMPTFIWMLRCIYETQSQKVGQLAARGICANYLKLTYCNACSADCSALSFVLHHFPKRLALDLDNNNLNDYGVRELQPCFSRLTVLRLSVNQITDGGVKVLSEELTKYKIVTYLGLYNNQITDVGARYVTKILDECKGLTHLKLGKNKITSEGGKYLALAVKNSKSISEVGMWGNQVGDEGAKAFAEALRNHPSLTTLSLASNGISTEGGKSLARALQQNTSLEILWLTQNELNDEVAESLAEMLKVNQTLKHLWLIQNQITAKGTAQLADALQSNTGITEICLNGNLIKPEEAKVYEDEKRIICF
The experiment in a line: NOD1 signaling inhibitors, SAR follow-up, revised (AID 2333).
`Cc1cc(SCC(=O)OCC(=O)C(C#N)c2nc3ccccc3[nH]2)c(C)cc1Br` (stereo not drawn) yielded an IC50 above 20 µM.

As for `CCCOC1=CC(=O)C(C=NNC(=S)Nc2ccccc2[N+](=O)[O-])C=C1` (stereo not drawn) [1-(2-nitrophenyl)-3-[[(E)-(6-oxo-4-propoxy-1-cyclohexa-2,4-dienylidene)methyl]amino]thiourea], the IC50 was determined as 7.73 µM.

Compound `Cc1cc(Br)ccc1SCC(=O)OCC(=O)C(C#N)c1nc2ccccc2[nH]1` (stereo not drawn) [2-[(4-bromo-2-methylphenyl)thio]acetic acid [3-cyano-3-(1,3-dihydrobenzimidazol-2-ylidene)-2-oxopropyl] ester] gave an IC50 above 20 µM.

In turn, `Cc1ccc(O)c(/N=C/C2=CC(Cc3ccccc3)C=C([N+](=O)[O-])C2=O)c1` (stereo not drawn) [(6E)-6-[[(5-methyl-2-oxidanyl-phenyl)amino]methylidene]-2-nitro-4-(phenylmethyl)cyclohexa-2,4-dien-1-one] showed a half-maximal inhibitory concentration (IC50) above 20 µM.

`Cc1ccc(C)c(SCC(=O)OCC(=O)C(C#N)c2nc3ccccc3[nH]2)c1` (stereo not drawn) [MLS000392255] yielded a concentration for half-maximal inhibition (IC50) above 20 µM.

`N#CC(C(=O)COC(=O)CSc1ccc(Cl)cc1)c1nc2ccccc2[nH]1` (stereo not drawn) [MLS-0208254.0001] returned a half-inhibitory concentration (IC50) above 20 µM.

With `CCOC1=CC=CC(C=NNC(=S)Nc2ccccc2[N+](=O)[O-])C1=O` (stereo not drawn) [MLS-0270696.0001], the IC50 turned out to be 8.23 µM.

Turning to `N#CC(C(=O)COC(=O)CSc1ccc2ccccc2c1)c1nc2ccccc2[nH]1` (stereo not drawn) [[3-cyano-3-(1,3-dihydrobenzimidazol-2-ylidene)-2-oxopropyl] 2-naphthalen-2-ylsulfanylacetate], the IC50 is above 20 µM.
